Measurements published in ChEMBL document CHEMBL3885881, “DrugMatrix”.

Species: Rattus norvegicus
Assay: DrugMatrix - Regimen: Daily Repeat
Assay type: toxicity, organism-based, Sprague-Dawley
Parameters: regimen Daily Repeat, gender Male, age 6-8 weeks
Details: in vivo, po, route oral GAVAGE, […]; for ABSOLUTE BASOPHIL / ABSOLUTE EOSINOPHIL / ABSOLUTE LYMPHOCYTE / ABSOLUTE MONOCYTE / ABSOLUTE SEGMENTED NEUTROPHIL / BASOPHIL / EOSINOPHIL / ERYTHROCYTE COUNT / HEMATOCRIT / HEMOGLOBIN / LEUKOCYTE COUNT / LYMPHOCYTE / MEAN CORPUSCULAR HEMOGLOBIN / MEAN CORPUSCULAR HEMOGLOBIN CONCENTRATION / MEAN CORPUSCULAR VOLUME / MONOCYTE / NEUTROPHIL / NUCLEATED RED BLOOD CELLS / PLATELET COUNT: tissue Blood; for ALANINE AMINOTRANSFERASE / ALBUMIN / ALKALINE PHOSPHATASE / ASPARTATE AMINOTRANSFERASE / BLOOD UREA NITROGEN / CARBON DIOXIDE / CHLORIDE / CHOLESTEROL / CREATINE PHOSPHOKINASE / CREATININE / GLUCOSE / LACTATE DEHYDROGENASE / LIPASE / PHOSPHORUS / POTASSIUM / SODIUM / TOTAL BILIRUBIN / TOTAL PROTEIN / URIC ACID: tissue Plasma
[1] = 30 mg/kg, 120 h, dose level Low, time 5 day
[2] = 2500 mg/kg, 72 h, dose level High, time 3 day
[3] = 2500 mg/kg, 120 h, dose level High, time 5 day

## COC1=CC(=O)C[C@@H](C)[C@]12Oc1c(Cl)c(OC)cc(OC)c1C2=O [GRISEOFULVIN]
[1]
  ABSOLUTE BASOPHIL: 0 CELLS/uL
  ABSOLUTE EOSINOPHIL: 0 CELLS/uL
  ABSOLUTE LYMPHOCYTE: 12913.33 CELLS/uL
  ABSOLUTE MONOCYTE: 48.67 CELLS/uL
  ABSOLUTE SEGMENTED NEUTROPHIL: 1938 CELLS/uL
  BASOPHIL: 0%
  EOSINOPHIL: 0%
  ERYTHROCYTE COUNT: 5.4 x10E6/uL
  HEMATOCRIT: 33.57%
  HEMOGLOBIN: 12.93 G/DL
  LEUKOCYTE COUNT: 14.9 x10E3/uL
  LYMPHOCYTE: 86.67%
  MEAN CORPUSCULAR HEMOGLOBIN: 23.93 pg
  MEAN CORPUSCULAR HEMOGLOBIN CONCENTRATION: 38.5 G/DL
  MEAN CORPUSCULAR VOLUME: 62.1 fL
  MONOCYTE: 0.33%
  NEUTROPHIL: 13%
  NUCLEATED RED BLOOD CELLS: 0 /100WBC
  PLATELET COUNT: 1179 x10E3/uL
  ALANINE AMINOTRANSFERASE: 63.67 u/L
  ALBUMIN: 3.87 G/DL
  ALKALINE PHOSPHATASE: 399.67 u/L
  ASPARTATE AMINOTRANSFERASE: 90.33 u/L
  BLOOD UREA NITROGEN: 15.33 mg/dL
  CARBON DIOXIDE: 28.33 mmol/L
  CHLORIDE: 101.67 MEQ/L
  CHOLESTEROL: 66.33 mg/dL
  CREATINE PHOSPHOKINASE: 384.67 u/L
  CREATININE: 0.2 mg/dL
  GLUCOSE: 154 mg/dL
  LACTATE DEHYDROGENASE: 329.33 u/L
  LIPASE: 10 u/L
  PHOSPHORUS: 11.63 mg/dL
  POTASSIUM: 6.32 MEQ/L
  SODIUM: 143 MEQ/L
  TOTAL BILIRUBIN: 0.2 mg/dL
  TOTAL PROTEIN: 5.5 G/DL
  URIC ACID: 1.43 mg/dL
[2]
  ABSOLUTE BASOPHIL: 0 CELLS/uL
  ABSOLUTE EOSINOPHIL: 109.33 CELLS/uL
  ABSOLUTE LYMPHOCYTE: 15660.67 CELLS/uL
  ABSOLUTE MONOCYTE: 63 CELLS/uL
  ABSOLUTE SEGMENTED NEUTROPHIL: 2167 CELLS/uL
  BASOPHIL: 0%
  EOSINOPHIL: 0.67%
  ERYTHROCYTE COUNT: 5.22 x10E6/uL
  HEMATOCRIT: 32.37%
  HEMOGLOBIN: 12.83 G/DL
  LEUKOCYTE COUNT: 18 x10E3/uL
  LYMPHOCYTE: 87%
  MEAN CORPUSCULAR HEMOGLOBIN: 24.6 pg
  MEAN CORPUSCULAR HEMOGLOBIN CONCENTRATION: 39.67 G/DL
  MEAN CORPUSCULAR VOLUME: 62.07 fL
  MONOCYTE: 0.33%
  NEUTROPHIL: 12%
  NUCLEATED RED BLOOD CELLS: 0 /100WBC
  PLATELET COUNT: 1162 x10E3/uL
  ALANINE AMINOTRANSFERASE: 57 u/L
  ALBUMIN: 3.87 G/DL
  ALKALINE PHOSPHATASE: 293.67 u/L
  ASPARTATE AMINOTRANSFERASE: 75.67 u/L
  BLOOD UREA NITROGEN: 14.33 mg/dL
  CARBON DIOXIDE: 33.67 mmol/L
  CHLORIDE: 98.33 MEQ/L
  CHOLESTEROL: 107.67 mg/dL
  CREATINE PHOSPHOKINASE: 199 u/L
  CREATININE: 0.17 mg/dL
  GLUCOSE: 144 mg/dL
  LACTATE DEHYDROGENASE: 120 u/L
  LIPASE: 11.67 u/L
  PHOSPHORUS: 12.17 mg/dL
  POTASSIUM: 6.74 MEQ/L
  SODIUM: 142.47 MEQ/L
  TOTAL BILIRUBIN: 0.2 mg/dL
  TOTAL PROTEIN: 5.83 G/DL
  URIC ACID: 1.47 mg/dL
[3]
  ABSOLUTE BASOPHIL: 0 CELLS/uL
  ABSOLUTE EOSINOPHIL: 34 CELLS/uL
  ABSOLUTE LYMPHOCYTE: 11701.67 CELLS/uL
  ABSOLUTE MONOCYTE: 201.67 CELLS/uL
  ABSOLUTE SEGMENTED NEUTROPHIL: 562.67 CELLS/uL
  BASOPHIL: 0%
  EOSINOPHIL: 0.33%
  ERYTHROCYTE COUNT: 5.46 x10E6/uL
  HEMATOCRIT: 34.03%
  HEMOGLOBIN: 13.2 G/DL
  LEUKOCYTE COUNT: 12.5 x10E3/uL
  LYMPHOCYTE: 93.67%
  MEAN CORPUSCULAR HEMOGLOBIN: 24.23 pg
  MEAN CORPUSCULAR HEMOGLOBIN CONCENTRATION: 38.8 G/DL
  MEAN CORPUSCULAR VOLUME: 62.4 fL
  MONOCYTE: 1.67%
  NEUTROPHIL: 4.33%
  NUCLEATED RED BLOOD CELLS: 0.33 /100WBC
  PLATELET COUNT: 1293.67 x10E3/uL
  ALANINE AMINOTRANSFERASE: 49.67 u/L
  ALBUMIN: 4.17 G/DL
  ALKALINE PHOSPHATASE: 316.33 u/L
  ASPARTATE AMINOTRANSFERASE: 89.33 u/L
  BLOOD UREA NITROGEN: 17.67 mg/dL
  CARBON DIOXIDE: 24 mmol/L
  CHLORIDE: 109 MEQ/L
  CHOLESTEROL: 95.67 mg/dL
  CREATINE PHOSPHOKINASE: 362.67 u/L
  CREATININE: 0.28 mg/dL
  GLUCOSE: 152.67 mg/dL
  LACTATE DEHYDROGENASE: 489 u/L
  LIPASE: 11.33 u/L
  PHOSPHORUS: 11.23 mg/dL
  POTASSIUM: 6.51 MEQ/L
  SODIUM: 150.77 MEQ/L
  TOTAL BILIRUBIN: 0.13 mg/dL
  TOTAL PROTEIN: 6.2 G/DL
  URIC ACID: 1.83 mg/dL
